# According to patent publication US20020137154A1, “Methods for improving cell growth and alcohol production during fermentation” (priority 2000, published 2002):
# Test system: Klebsiella oxytoca P2
# Test: Batch fermentation of Klebsiella oxytoca P2 in 1% CSL medium and xylose with acetaldehyde: ethanol production and cell growth
# Type: cell-based
# Settings: for Ethanol Production Maximum / Ethanol Production Maximum % Control / Ethanol yield / Initial Growth (OD @ 24 h) % Control / Initial Growth (OD @ 24 h) OD / Maximum Cell Density % Control / Maximum Cell Density OD / Maximum Cell Density Time / Time to completion / Volumetric Productivity % Control (based on Avg) / Volumetric Productivity % Control (based on Max) / Volumetric Productivity Average / Volumetric Productivity Maximum: K. oxytoca P2, 1% CSL+xylose
# Method: Two types of media were tested: 1% CSL and Luria broth (LB). Each contained 97 g of either xylose or glucose per liter. Luria Broth consists of, per liter: 10 g Difco® Tryptone, 5 g Difco® Yeast Extract and 5 g NaCl. The 1% CSL medium consists of Corn Steep Liquor (1% w/v) plus mineral salts (mineral salts per liter: 1 g of KH2PO4. 0.5 g of K2HPO4, 3.1 g of (NH4)2SO4, 0.4 g of MgCl2·6H2), and 20 mg FeCl3·6H2O).
# Luria Broth was prepared by autoclaving a 2× nutrient stock containing, per liter: 20 g Difco® Tryptone, 10 g Difo® Yeast Extract, and 10 g NaCl. Sugars (xylose or glucose) were autoclaved separately. A 1% CSL medium was prepared as follows: Commercial Corn Steep Liquor (CSL; 50% dry weight/50% water) was diluted with tap water to make a 20X stock containing 100 g dry weight of Corn Steep Liquor/L and was adjusted to pH 7.2 with NaOH (50%). After sterilization by autoclaving, the 20X CSL stock was clarified by centrifugation at 5000×g for 10 minutes. Magnesium was added as a 100× stock solution (40 g/L MgCl2·6H2O). Iron was added as a 1000× stock solution made by dissolving 20 g FeCl3·6H2O in 175 mL of HCl and adjusting to 1 L with sterile water. Nitrogen, sulfur and phosphorus were added using a 20× stock solution containing the following (per liter): 20 g of KH2PO4, 10 g of K2HPO4 and 62 g of (NH4)2SO4. Stock solutions containing minerals were sterilized separately by autoclaving. Final media was prepared by adding 750 mL of water to 1 L bottle containing 100 g of xylose or glucose. This solution was autoclaved, and stock solutions were added to provide a 1× concentration, and the final volume adjusted to 1 L. This broth was further diluted by the addition of supplements (acetaldehyde stock or distilled water) during fermentation with a resulting sugar content of 97 g/L.
# Inocula were grown in same media used for fermentation and were prepared as follows. Three colonies from a fresh plate were used to inoculate seed cultures: 250-mL flask containing 100 mL medium. These cultures were grown with agitation (120 rpm) for 12-16 hours at 35° C. to a final OD550nm of approximately 2.0-2.5. Cells were harvested by centrifugation at 5000×g for 5 minutes, and resuspended in fresh media to an OD550nm of 0.1. The resulting suspension was distributed into 500-mL beakers containing 345 ml each of fermentation medium. Acetaldehyde was added as indicated. Batch fermentations (35° C., 100 rpm) were maintained at pH 6.5 by the automatic addition of 2N KOH. Cell mass, ethanol, and base addition (2N KOH) were recorded during 96 hours of incubation.
# Cell mass was estimated by measuring OD550nm using Baush & Lomb® Spectronic 70 spectrophotometer. […] Ethanol was measured by gas chromatography using a Varian® 3400 CX gas chromatograph with 1-propanol as an internal standard.
# This example describes the effect of the addition of acetaldehyde to 1% CSL and xylose medium, which has been inoculated with ethanologenic, cells, i.e., Klebsiella oxytoca P2.
# Maximum ethanol production is shown in grams/liter (g/L). The ethanol yield is shown in grams of ethanol/grams of added sugar. Maximum volumetric productivity is shown in grams of ethanol/(liter)(hour). The average productivity is calculated form the start of fermentation to the completion of fermentation in grams ethanol/(liter)(hour).
# Acetaldehyde was added to the fermentation medium at five different concentrations and time points. Where only one acetaldehyde value is provided, this amount of acetaldehyde was added at the start of fermentation only (i.e., 0.25 g/L acetaldehyde or 0.5 g/L). Where two or three additions are indicated, the first volume was added at the start of fermentation and additional doses of the nutrient compound were added after 8 hours of fermentation or at 8-hour intervals.
# [1] = 2 × 0.25 g/L (start, after 8 hours)
# [2] = 3 × 0.25 g/L (start, then 8-hour intervals)
# [3] = K. oxytoca P2, CSL and xylose, 0.5 g/L at the start
compound,measurement,setting,value
"CC=O [Acetaldehyde, acetaldehyde]",Ethanol Production Maximum,0.25 g/L at start,25.43 g/L
same,Ethanol Production Maximum % Control,0.25 g/L at start,107.35%
same,Ethanol yield,0.25 g/L at start,0.262 grams of ethanol/grams of added sugar
same,Initial Growth (OD @ 24 h) % Control,0.25 g/L at start,93.90%
same,Initial Growth (OD @ 24 h) OD,0.25 g/L at start,3.54 OD
same,Maximum Cell Density % Control,0.25 g/L at start,111.96%
same,Maximum Cell Density OD,0.25 g/L at start,5.68 OD
same,Maximum Cell Density Time,0.25 g/L at start,72.00 h
same,Time to completion,0.25 g/L at start,>96 h
same,Volumetric Productivity % Control (based on Avg),0.25 g/L at start,107.35%
same,Volumetric Productivity % Control (based on Max),0.25 g/L at start,135.46%
same,Volumetric Productivity Average,0.25 g/L at start,0.265 grams ethanol/(liter)(hour)
same,Volumetric Productivity Maximum,0.25 g/L at start,0.47 grams of ethanol/(liter)(hour)
same,Ethanol Production Maximum,0.5 g/L at start,26.53 g/L
same,Ethanol Production Maximum % Control,0.5 g/L at start,111.98%
same,Ethanol yield,0.5 g/L at start,0.273 grams of ethanol/grams of added sugar
same,Initial Growth (OD @ 24 h) % Control,0.5 g/L at start,69.39%
same,Initial Growth (OD @ 24 h) OD,0.5 g/L at start,2.61 OD
same,Maximum Cell Density % Control,0.5 g/L at start,116.26%
same,Maximum Cell Density OD,0.5 g/L at start,5.89 OD
same,Maximum Cell Density Time,0.5 g/L at start,96.00 h
same,Time to completion,0.5 g/L at start,>96 h
same,Volumetric Productivity % Control (based on Avg),0.5 g/L at start,111.98%
same,Volumetric Productivity % Control (based on Max),0.5 g/L at start,147.11%
same,Volumetric Productivity Average,0.5 g/L at start,0.276 grams ethanol/(liter)(hour)
same,Volumetric Productivity Maximum,0.5 g/L at start,0.51 grams of ethanol/(liter)(hour)
same,Ethanol Production Maximum,[1],25.56 g/L
same,Ethanol Production Maximum % Control,[1],107.88%
same,Ethanol yield,[1],0.263 grams of ethanol/grams of added sugar
same,Initial Growth (OD @ 24 h) % Control,[1],88.59%
same,Initial Growth (OD @ 24 h) OD,[1],3.34 OD
same,Maximum Cell Density % Control,[1],104.50%
same,Maximum Cell Density OD,[1],5.30 OD
same,Maximum Cell Density Time,[1],96.00 h
same,Time to completion,[1],>96 h
same,Volumetric Productivity % Control (based on Avg),[1],107.88%
same,Volumetric Productivity % Control (based on Max),[1],126.68%
same,Volumetric Productivity Average,[1],0.266 grams ethanol/(liter)(hour)
same,Volumetric Productivity Maximum,[1],0.44 grams of ethanol/(liter)(hour)
same,Ethanol Production Maximum,[2],26.14 g/L
same,Ethanol Production Maximum % Control,[2],110.32%
same,Ethanol yield,[2],0.269 grams of ethanol/grams of added sugar
same,Initial Growth (OD @ 24 h) % Control,[2],95.66%
same,Initial Growth (OD @ 24 h) OD,[2],3.60 OD
same,Maximum Cell Density % Control,[2],106.51%
same,Maximum Cell Density OD,[2],5.40 OD
same,Maximum Cell Density Time,[2],72.00 h
same,Time to completion,[2],>96 h
same,Volumetric Productivity % Control (based on Avg),[2],110.32%
same,Volumetric Productivity % Control (based on Max),[2],135.55%
same,Volumetric Productivity Average,[2],0.272 grams ethanol/(liter)(hour)
same,Volumetric Productivity Maximum,[2],0.47 grams of ethanol/(liter)(hour)
same,ethanol production as compared to the control,[3],highest amount of ethanol production
same,initial growth and maximum cell density as compared to the control,[3],increased initial growth and maximum cell density
